Source: patent US8623429B2, “Stabilized anthocyanin compositions” (Omnica GmbH, priority 2007, dated 2014)

Assays:
Assay type in all cases: physicochemical
[1] = Example 1: stability of bilberry extract anthocyanosides, 4 hours at 37° C., pH 7.0, with/without DHLA or GSH (HPLC)
[2] = Example 9: stability of bilberry extract anthocyanosides, 4 hours at 37° C., pH 7.0, with/without L-cysteine
Procedure: Sample a) 60 mg bilberry extract [37% anthocyanosides] (0.048 mmol anthocyanosides expressed as cyanidin-3-O-glucoside) were added to a 100 ml flask with 60 ml sodium phosphate buffer (5% [w/w], pH=7.0), and stirred until dissolution was complete. A 1 ml sample was taken immediately and acidified with formic acid to pH=1.0 and analyzed by HPLC for the content of anthocyanosides (Fresh Sample). The remaining solution was kept for 4 hours at 37° C. (water bath) with stirring. Thereafter another sample (Blank sample), representing unprotected degradation, was taken and acidified.
Sample b) 20 mg L-cysteine […] were added to a 100 ml flask with 60 ml sodium phosphate buffer (5% [w/w], pH=7.0) and stirred until dissolution was complete. 60 mg bilberry extract [37% anthocyanosides] (0.048 mmol expressed as cyanidin-3-O-glucoside) were then added to the flask and stir to fully dissolve, then kept for 4 hours at 37° C. (water bath) with stirring.
After 4 hours, samples were taken and acidified immediately with formic acid to pH=1.0 and analyzed by HPLC for the content of anthocyanosides. Degradation is expressed as decrease in peak area of individual peaks (calculated as % left after 4 hours).
Samples were prepared as outlined above in the HPLC Analytical Method. Test stability samples were immediately acidified (to block degradation) and injected undiluted following the detailed description provided below.

[3] = Cyanidin-3-O-galactoside at pH 3.1 or 7.0 with/without DHLA, 25° C. over 3 days (HPLC)
Procedure: Cyanidn-3-O-Galactoside (0.001 molar solution) was dissolved at pH=3.1 or pH=7.0 each with/without DHLA (1.44 mmolar solution). Replicate incubations were followed at 25° C. over 3 days by HPLC.

[4] = Example 2: degradation over time of selected bilberry anthocyanosides at 37° C., pH 7.0, with/without GSH (HPLC); conditions: pH 7.0, 37° C.; for %-residual anthocyanosides (% left): 4.30 hours
Procedure: Sample a) 60 mg bilberry extract [37% anthocyanosides] (0.048 mmol expressed as cyanidin-3-O-glucoside) were added to a 100 ml, filled to volume with sodium phosphate buffer (5% [w/w], pH=7.0) and stirred until dissolution was complete. A 1 ml sample was immediately taken and acidified with formic acid to pH=1.0 and analyzed by HPLC for the content of anthocyanosides. The remaining solution was kept at 37° C. (water bath) with stirring and additional 1 ml samples (Blank Samples), representing unprotected degradation, were sampled every 15 minutes. The samples were analyzed for selected anthocyanosides by HPLC.
Sample b) 20 mg reduced L-glutathione (0.065 mmol) were added to a 100 ml flask with 60 ml sodium phosphate buffer (5% [w/w], pH=7.0) and stirred until dissolution was complete. 60 mg bilberry extract [37% anthocyanosides] (0.048 mmol expressed as cyanidin-3-O-glucoside) were added and the flask was filled to volume with sodium phosphate buffer (5% [w/w], pH=7.0) and kept at 37° C. (water bath) with stirring. Every 15 minutes, 1 ml samples were taken and analyzed for selected anthocyanosides by HPLC.
Samples were prepared as outlined below in HPLC Analytical Method. Test stability samples were immediately acidified (to block degradation) and injected undiluted following the detailed description provided below.
HPLC Analytical Method (Materials, Instruments and Methods): […]

[5] = 20 mg reduced L-glutathione, pH 7.0, 37° C., 4 hours
[6] = 30 mg dihydrolipoic acid, pH 7.0, 37° C., 4 hours
[7] = unprotected, pH 7.0, 37° C., 4 hours

In the case of `OC[C@H]1O[C@@H](Oc2cc3c(O)cc(O)cc3[o+]c2-c2ccc(O)c(O)c2)[C@H](O)[C@@H](O)[C@H]1O` [Cn-3O-Gal, Cyanidin-3-O-galactoside], the “% left, GSH (4 hours)” value [1, 5] is reported as 77.3%, the “Peak Area, GSH (4 hours)” value [1, 5] is reported as 360.2 and the “% left, DHLA (4 hours)” value [1, 6] is reported as 64.5%. The “Peak Area, DHLA (4 hours)” value [1, 6] was 300.3, the “Peak Area, Fresh (0 hours)” value ([1]; bilberry extract 60 mg/100 ml sodium phosphate buffer pH 7.0, fresh sample) was 465.8 and the “% left, Blank (4 hours)” value [1, 7] was 41.0%. The “Peak Area, Blank (4 hours)” value [1, 7] was 191.1, the “Peak Area, Fresh solution” value ([2]; bilberry extract 60 mg in buffer pH 7.0, fresh sample) was 465.8 and the “% left, L-cysteine 20 mg” value ([2]; pH 7.0, 37° C., 4 hours) was 77.3%. The “Peak Area, L-cysteine 20 mg” value ([2]; pH 7.0, 37° C., 4 hours) was 360.2, the “% left, Blank” value [2, 7] was 41.0% and the “Peak Area, Blank” value [2, 7] was 191.1. The “recovered after 3 days” value ([3]; pH 3.1, 25° C., in presence of DHLA (1.44 mmolar)) was 95%, the “recovered after 3 days” value ([3]; pH 3.1, 25° C., unprotected sample) was 61% and the “recovered after 3 days” value ([3]; pH 7.0, 25° C., in presence of DHLA (1.44 mmolar)) was “about 47%”. For the same molecule, the “recovered after 3 days” value ([3]; pH 7.0, 25° C., unprotected sample) was ~0%, the “Peak Area” value ([4]; Blank Sample, 1:15 h) was 305.40 and the “Peak Area” value ([4]; Blank Sample, 4:15 h) was 300.50. For the same molecule, the “Peak Area” value ([4]; Blank Sample, 4:30 h) was 205.36, the “Peak Area” value ([4]; Blank sample, 0:00 h) was 498.85 and the “Peak Area” value ([4]; Blank sample, 0:15 h) was 390.37. For the same molecule, the “Peak Area” value ([4]; Blank sample, 0:30 h) was 433.94, the “Peak Area” value ([4]; Blank sample, 0:45 h) was 347.29 and the “Peak Area” value ([4]; Blank sample, 1:00 h) was 380.25. For the same molecule, the “Peak Area” value ([4]; Blank sample, 1:45 h) was 353.94, the “Peak Area” value ([4]; Blank sample, 2:00 h) was 337.90 and the “Peak Area” value ([4]; Blank sample, 2:15 h) was 320.70. For the same molecule, the “Peak Area” value ([4]; Blank sample, 2:30 h) was 271.19, the “Peak Area” value ([4]; Blank sample, 2:45 h) was 274.22 and the “Peak Area” value ([4]; Blank sample, 3:00 h) was 324.58. The “Peak Area” value ([4]; Blank sample, 3:15 h) was 324.25, the “Peak Area” value ([4]; Blank sample, 3:30 h) was 281.19 and the “Peak Area” value ([4]; Blank sample, 4:00 h) was 315.54. The “%-residual anthocyanosides (% left)” value ([4]; Blank) was 41%, the “Peak Area” value ([4]; GSH Protected Sample (20 mg), 0:30 h) was 470.61 and the “Peak Area” value ([4]; GSH Protected Sample (20 mg), 1:30 h) was 431.86. The “Peak Area” value ([4]; GSH Protected Sample (20 mg), 2:30 h) was 390.23, the “Peak Area” value ([4]; GSH Protected Sample (20 mg), 3:30 h) was 422.54 and the “Peak Area” value ([4]; GSH Protected Sample (20 mg), 4:30 h) was 420.37. For the same molecule, the “Peak Area” value ([4]; GSH Protected Sample (20 mg), 4:45 h) was 393.21, the “Peak Area” value ([4]; GSH protected sample (20 mg), 0:00 h) was 508.09 and the “Peak Area” value ([4]; GSH protected sample (20 mg), 0:15 h) was 504.88. The “Peak Area” value ([4]; GSH protected sample (20 mg), 0:45 h) was 425.89, the “Peak Area” value ([4]; GSH protected sample (20 mg), 1:00 h) was 462.71 and the “Peak Area” value ([4]; GSH protected sample (20 mg), 1:15 h) was 452.17. For the same molecule, the “Peak Area” value ([4]; GSH protected sample (20 mg), 1:45 h) was 442.86, the “Peak Area” value ([4]; GSH protected sample (20 mg), 2:00 h) was 436.19 and the “Peak Area” value ([4]; GSH protected sample (20 mg), 2:15 h) was 442.30. For the same molecule, the “Peak Area” value ([4]; GSH protected sample (20 mg), 2:45 h) was 422.32, the “Peak Area” value ([4]; GSH protected sample (20 mg), 3:00 h) was 433.21 and the “Peak Area” value ([4]; GSH protected sample (20 mg), 3:15 h) was 425.54. For the same molecule, the “Peak Area” value ([4]; GSH protected sample (20 mg), 3:45 h) was 397.72, the “Peak Area” value ([4]; GSH protected sample (20 mg), 4:00 h) was 446.42 and the “Peak Area” value ([4]; GSH protected sample (20 mg), 4:15 h) was 419.80. The “%-residual anthocyanosides (% left)” value ([4]; GSH-protected) was 77% and the “%-residual anthocyanosides (% left)” value ([4]; GSH-protected, listed as cyanidin-3-O-galactose) was 77%.
